Assay results published in patent US11814367B2, “Inhibitors of glycogen synthase 1 (GYS1) and methods of use thereof” (Maze Therapeutics, Inc., priority 2021, dated 2023).

Assays:
[1] = molecular target: hGYS1 enzyme (recombinant hGYS1/GN1 protein) (Homo sapiens (Human), UniProt P13807); assay: GYS1 coupled enzyme assay (PK/LDH); format: biochemical; conditions: hGYS1/GN1 50 nM, UDP-Glucose 0.8 mM, G6P 1 mM; geometric mean of at least 2 runs
[2] = system: hGYS1 enzyme / glycogen synthesis in HeLa cells; assay: GYS1 cell based assay (glycogen synthesis, Glucose-glo); design: species or system human; conditions: 24 h incubation, 20 mM glucose, geometric mean of at least 2 runs
Procedure, shortened: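 HeLa cells starved 24 h in medium containing only 1× Glutamax were plated onto compound in medium with 20 mM glucose (1% DMSO final) for 24 h, 37 °C, 5% CO2. Acid lysates were Tris-quenched, glucoamylase-digested (pH 5.3, 1 h, 37 °C) and read by Glucose-glo luminescence. IC50 came from Hill fits, as geometric mean of ≥2 runs.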

[3] = molecular target: hGYS2 enzyme (recombinant hGYS2/GN1 protein) (Homo sapiens (Human), UniProt P54840); assay: GYS2 coupled enzyme assay (PK/LDH); format: biochemical; conditions: geometric mean of at least 2 assay runs on separate days, read-out: Avg_IC50
Procedure, shortened: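 Recombinant hGYS2/GN1 (200 nM) with 2 mM UDP-glucose, 0.2% rabbit liver glycogen, 2 mM glucose-6-phosphate; UDP coupled via PK/LDH (2 mM PEP, 0.6 mM NADH). Buffer 50 mM Tris pH 7.5, 2 mM MgCl2, 100 mM KCl, 2.5% DMSO. A340 slope over 10 min; IC50 from Hill fit of duplicates.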

Sequence of hGYS2 enzyme (recombinant hGYS2/GN1 protein) (P54840 whole entry): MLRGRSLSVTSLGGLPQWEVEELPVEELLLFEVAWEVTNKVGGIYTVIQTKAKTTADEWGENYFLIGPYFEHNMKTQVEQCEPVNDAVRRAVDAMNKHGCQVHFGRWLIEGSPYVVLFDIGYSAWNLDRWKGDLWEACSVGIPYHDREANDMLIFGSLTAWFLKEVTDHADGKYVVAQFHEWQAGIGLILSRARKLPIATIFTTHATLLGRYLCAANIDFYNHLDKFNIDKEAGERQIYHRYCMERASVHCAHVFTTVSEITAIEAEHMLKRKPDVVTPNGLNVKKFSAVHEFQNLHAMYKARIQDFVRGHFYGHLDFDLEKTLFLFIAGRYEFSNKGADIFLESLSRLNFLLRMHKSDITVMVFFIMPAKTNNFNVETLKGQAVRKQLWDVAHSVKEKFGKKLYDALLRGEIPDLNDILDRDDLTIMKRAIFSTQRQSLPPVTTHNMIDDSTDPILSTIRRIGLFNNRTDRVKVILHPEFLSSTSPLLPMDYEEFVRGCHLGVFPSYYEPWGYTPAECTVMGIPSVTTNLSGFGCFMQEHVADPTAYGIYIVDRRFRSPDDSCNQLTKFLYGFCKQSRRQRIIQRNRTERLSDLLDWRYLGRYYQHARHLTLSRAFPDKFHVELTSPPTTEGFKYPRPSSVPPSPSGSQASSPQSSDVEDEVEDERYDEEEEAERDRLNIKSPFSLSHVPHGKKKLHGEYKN
Sequence of hGYS2 enzyme (recombinant hGYS2/GN1 protein) (P46976 whole entry partner): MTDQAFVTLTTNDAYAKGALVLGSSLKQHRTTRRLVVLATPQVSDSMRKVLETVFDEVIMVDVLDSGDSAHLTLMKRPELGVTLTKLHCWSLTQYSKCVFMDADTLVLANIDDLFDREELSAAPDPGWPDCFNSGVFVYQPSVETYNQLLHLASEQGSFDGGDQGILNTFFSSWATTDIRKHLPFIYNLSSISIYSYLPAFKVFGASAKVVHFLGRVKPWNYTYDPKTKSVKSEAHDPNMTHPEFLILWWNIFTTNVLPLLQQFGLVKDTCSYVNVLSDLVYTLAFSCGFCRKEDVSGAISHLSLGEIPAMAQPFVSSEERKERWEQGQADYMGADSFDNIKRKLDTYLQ
Sequence of hGYS1 enzyme (recombinant hGYS1/GN1 protein) (P13807 whole entry): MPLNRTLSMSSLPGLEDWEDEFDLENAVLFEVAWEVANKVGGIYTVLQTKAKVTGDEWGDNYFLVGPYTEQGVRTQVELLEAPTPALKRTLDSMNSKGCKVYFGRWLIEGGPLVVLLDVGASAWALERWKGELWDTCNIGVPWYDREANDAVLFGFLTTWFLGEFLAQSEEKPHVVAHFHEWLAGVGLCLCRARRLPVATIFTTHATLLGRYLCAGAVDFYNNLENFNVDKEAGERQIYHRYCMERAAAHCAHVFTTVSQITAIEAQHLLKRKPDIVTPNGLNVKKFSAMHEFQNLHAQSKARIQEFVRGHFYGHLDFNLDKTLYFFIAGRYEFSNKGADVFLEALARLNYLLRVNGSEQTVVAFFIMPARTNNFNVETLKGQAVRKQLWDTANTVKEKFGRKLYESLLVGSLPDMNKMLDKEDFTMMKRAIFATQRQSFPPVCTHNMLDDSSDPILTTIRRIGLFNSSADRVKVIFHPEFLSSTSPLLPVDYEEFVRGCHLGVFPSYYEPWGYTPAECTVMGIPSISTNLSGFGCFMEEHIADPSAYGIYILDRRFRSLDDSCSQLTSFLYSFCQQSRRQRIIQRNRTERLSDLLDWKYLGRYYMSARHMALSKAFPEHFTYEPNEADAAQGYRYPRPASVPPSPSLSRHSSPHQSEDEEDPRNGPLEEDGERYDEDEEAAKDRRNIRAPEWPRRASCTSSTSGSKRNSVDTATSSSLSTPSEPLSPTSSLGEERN
Sequence of hGYS1 enzyme (recombinant hGYS1/GN1 protein) (P46976 whole entry partner): as the sequence (P46976 whole entry partner) above

Row | Compound | IC50 [1] [µM] | IC50 ([2]; Homo sapiens, HeLa, 24 h) [µM] | IC50 [3] [µM] | IC50 [2] [µM]
1 | O=C(NC(c1ccccc1)c1ccc(C2CC2)cn1)[C@@H]1C[C@@H](F)CN1C(=O)Cc1cnn[nH]1 (single isomer, unassigned) [Compound 497, (2S,4R)-1-(2-(1H-1,2,3-triazol-5-yl)acetyl)-N—((S) or (R)-(5-cyclopropylpyridin-2-yl)(phenyl)methyl)-4-fluoropyrrolidine-2-carboxamide] | 0.369 | > 5.67 | > 100 | –
2 | CC(C(=O)N1C[C@H](F)C[C@H]1C(=O)N[C@@H](c1ccccc1)c1ccc(C2(C)CC2)c(F)c1)n1cnc2ccccc21 (single isomer, unassigned) [Compound 567, (2S,4R)-1-[(2R) or (2S)-2-(1H-1,3-benzodiazol-1-yl)propanoyl]-4-fluoro-N-[(S)-[3-fluoro-4-(1-methylcyclopropyl)phenyl](phenyl)methyl]pyrrolidine-2-carboxamide] | 0.642 | – | > 100 | 11.5
3 | CC(C(=O)N1C[C@H](F)C[C@H]1C(=O)N[C@@H](c1ccccc1)c1ccc(C2(C)CC2)c(F)c1)n1cnc2ccccc21 (single isomer, unassigned) [Compound 574, (2S,4R)-1-[(2S) or 2R)-2-(1H-1,3-benzodiazol-1-yl)propanoyl]-4-fluoro-N-[(S)-[3-fluoro-4-(1-methylcyclopropyl)phenyl](phenyl) methyl]pyrrolidine-2-carboxamide] | 0.022 | – | > 100 | 0.2
4 | CC(C)c1ccc([C@@H](NC(=O)[C@@H]2C[C@@H](F)CN2C(=O)Cc2nn(C)c(=O)n2C)c2ccccc2)nc1F [Compound 779, (2S,4R)-1-[2-(1,4-dimethyl-5-oxo-4,5-dihydro-1H-1,2,4-triazol-3-yl)acetyl]-4-fluoro-N-[(S)-[6-fluoro-5-(propan-2-yl)pyridin-2-yl](phenyl)methyl] pyrrolidine-2-carboxamide] | – | 0.33 | > 100 | –
5 | CCn1cc(CC(=O)N2C[C@H](F)C[C@H]2C(=O)N[C@@H](c2ccccc2)c2ccc(C(C)C)c(F)n2)ncc1=O [Compound 797, (2S,4R)-1-[2-(4-ethyl-5-oxo-4,5-dihydropyrazin-2-yl)acetyl]-4-fluoro-N-[(S)-[6-fluoro-5-(propan-2-yl)pyridin-2-yl](phenyl)methyl] pyrrolidine-2-carboxamide] | 0.016 | 0.29 | – | –
6 | Cc1cc(C(F)F)nn1CC(=O)N1C[C@H](F)C[C@H]1C(=O)N[C@@H](c1ccccc1)c1ccc(C(C)C)c(F)n1 [Compound 804, (2S,4R)-1-{2-[3-(difluoromethyl)-5-methyl-1H-pyrazol-1-yl]acetyl}-4-fluoro-N-[(S)-[6-fluoro-5-(propan-2-yl)pyridin-2-yl](phenyl)methyl] pyrrolidine-2-carboxamide] | 0.017 | 0.14 | – | –
7 | CC(C)c1ccc([C@@H](NC(=O)[C@@H]2C[C@@H](F)CN2C(=O)Cn2nncc2N2CC(F)(F)C2)c2ccccc2)nc1F [Compound 807, (2S,4R)-1-{2-[5-(3,3-difluoroazetidin-1-yl)-1H-1,2,3-triazol-1-yl]acetyl}-4-fluoro-N-[(S)-[6-fluoro-5-(propan-2-yl)pyridin-2-yl](phenyl)methyl] pyrrolidine-2-carboxamide] | 0.019 | 0.45 | – | –
8 | (2S,4R)-4-fluoro- N-[(S) or (R)-[6- fluoro-5-(propan- 2-yl)pyridin-2- yl][3-(1,2-oxazol-5- yl)phenyl]methyl]- 1-[2-(1H-1,2,3- triazol-5- yl)acetyl]pyrrolidine- 2-carboxamide [Compound 694] | 0.034 | – | – | 1.21

More lines, now with the values ahead:

Row | IC50 [1] [µM] | IC50 ([2]; Homo sapiens, HeLa, 24 h) [µM] | IC50 [3] [µM] | IC50 [2] [µM] | Compound
9 | 0.01 | – | > 100 | 0.15 | CC(C(=O)N1C[C@H](F)C[C@H]1C(=O)N[C@@H](c1ccccc1)c1ccc(C2(C)CC2)c(F)n1)n1cnc2ccccc21 (single isomer, unassigned) [Compound 586, (2S,4R)-1-((S) or (R)-2-(1H-benzo[d]imidazol-1-yl)propanoyl)-4-fluoro-N—((S)-(6-fluoro-5-(1-methylcyclopropyl)pyridin-2-yl)(phenyl)methyl)pyrrolidine-2-carboxamide]
10 | 0.005 | 0.11 | – | – | CCn1cc(CC(=O)N2C[C@H](F)C[C@H]2C(=O)N[C@@H](c2ccccc2)c2ccc(C(C)C)c(F)n2)cc(C)c1=O [Compound 796, (2S,4R)-1-[2-(1-ethyl-5-methyl-6-oxo-1,6-dihydropyridin-3-yl)acetyl]-4-fluoro-N-[(S)-[6-fluoro-5-(propan-2-yl)pyridin-2-yl](phenyl)methyl] pyrrolidine-2-carboxamide]
11 | 0.012 | 0.22 | – | – | CCOc1ncc(CC(=O)N2C[C@H](F)C[C@H]2C(=O)N[C@@H](c2ccccc2)c2ccc(C(C)C)c(F)n2)cc1C [Compound 798, (2S,4R)-1-[2-(6-ethoxy-5-methylpyridin-3-yl)acetyl]-4-fluoro-N-[(S)-[6-fluoro-5-(propan-2-yl)pyridin-2-yl](phenyl)methyl] pyrrolidine-2-carboxamide]
12 | 0.004 | 0.1 | – | – | CCn1cc(C)cc(CC(=O)N2C[C@H](F)C[C@H]2C(=O)N[C@@H](c2ccccc2)c2ccc(C(C)C)c(F)n2)c1=O [Compound 799, (2S,4R)-1-[2-(1-ethyl-5-methyl-2-oxo-1,2-dihydropyridin-3-yl)acetyl]-4-fluoro-N-[(S)-[6-fluoro-5-(propan-2-yl)pyridin-2-yl](phenyl)methyl] pyrrolidine-2-carboxamide]
13 | 0.009 | 0.37 | – | – | CC(C)c1ccc([C@@H](NC(=O)[C@@H]2C[C@@H](F)CN2C(=O)Cc2c[nH]c(=O)cn2)c2ccccc2)nc1F [Compound 802, (2S,4R)-4-fluoro-N-[(S)-[6-fluoro-5-(propan-2-yl)pyridin-2-yl](phenyl)methyl]-1-[2-(5-oxo-4,5-dihydropyrazin-2-yl)acetyl]pyrrolidine-2-carboxamide]
14 | 0.004 | 0.08 | – | – | Cc1cc(C(F)F)n(CC(=O)N2C[C@H](F)C[C@H]2C(=O)N[C@@H](c2ccccc2)c2ccc(C(C)C)c(F)n2)n1 [Compound 803, (2S,4R)-1-{2-[5-(difluoromethyl)-3-methyl-1H-pyrazol-1-yl]acetyl}-4-fluoro-N-[(S)-[6-fluoro-5-(propan-2-yl)pyridin-2-yl](phenyl)methyl] pyrrolidine-2-carboxamide]
15 | 0.012 | 0.28 | – | – | CCN(CC)c1cnnn1CC(=O)N1C[C@H](F)C[C@H]1C(=O)N[C@@H](c1ccccc1)c1ccc(C(C)C)c(F)n1 [Compound 805, (2S,4R)-1-{2-[5-(diethylamino)-1H-1,2,3-triazol-1-yl]acetyl}-4-fluoro-N-[(S)-[6-fluoro-5-(propan-2-yl)pyridin-2-yl](phenyl)methyl] pyrrolidine-2-carboxamide]
16 | 0.006 | 0.09 | – | – | CCn1ccnc(CC(=O)N2C[C@H](F)C[C@H]2C(=O)N[C@@H](c2ccccc2)c2ccc(C(C)C)c(F)n2)c1=O [Compound 806, (2S,4R)-1-[2-(4-ethyl-3-oxo-3,4-dihydropyrazin-2-yl)acetyl]-4-fluoro-N-[(S)-[6-fluoro-5-(propan-2-yl)pyridin-2-yl](phenyl)methyl] pyrrolidine-2-carboxamide]
